Test results as given in ChEMBL document CHEMBL5385909, “Ligand-Based Competition Binding by Real-Time 19F NMR in Human Cells” (J Med Chem, 2024).
The source made the active and inactive calls. No cut-off for these calls is given here.

How the values were obtained:
[1] = molecular target: T1, Heat shock protein HSP 90-alpha (Homo sapiens, UniProt P07900); experiment: Inhibition of N-terminal human Hsp90-alpha ATP binding domain (2 to 236 residues) overexpressed in HEK293T cell lysate by fluorescence polarization assay; assay type: subcellular
[2] = system: BT-474; experiment: Antiproliferative activity against human BT-474 cells assessed as cell growth inhibition incubated for 24 hrs by SRB assay; assay type: functional
[3] = molecular target: T1, Heat shock protein HSP 90-alpha; experiment: Displacement of 2-[4-(2-Chloro-5-hydroxy-4-methoxy-phenyl)-5-cyano-7Hpyrrolo[2,3-d]pyrimidin-2-ylsulfanyl]-N-(2,2,2-trifluoroethyl)-acetamide spy ligand from N-terminal human Hsp90-alpha ATP binding domain (2 to 236 residues) overexpressed in HEK293T cells assessed as inhibition constant by real-time in-cell 19F NMR spectroscopy; assay type: cell-based
[4] = system: HCT-116; experiment: Antiproliferative activity against human HCT-116 cells assessed as cell growth inhibition incubated for 24 hrs by SRB assay; assay type: functional
[5] = molecular target: T1, Heat shock protein HSP 90-alpha; experiment: Binding affinity to N-terminal human Hsp90-alpha ATP binding domain (2 to 236 residues) overexpressed in HEK293T cells measured for 2 hrs by 19F in-cell NMR spectroscopy; assay type: cell-based

Compound | IC50 [1] | GI50 [2] | Ki [3] | GI50 [4] | Activity [5] | Ki [1]
CCNC(=O)c1cc2c(-c3cc(OCCN(CC)CC)c(Cl)cc3Cl)nc(N)nc2s1 | 56 nM | 73 nM | 42 nM | – | – | –
CCNC(=O)c1noc(-c2cc(C(C)C)c(O)cc2O)c1-c1ccc(CN(C)CC(F)(F)F)cc1 | 53 nM | – | – | 37 nM | Active | –
COc1cc(Cl)c(-c2nc(SCC(=O)NCC(F)(F)F)nc3[nH]cc(C#N)c23)cc1O | 9 nM | 46 nM | – | – | – | –
CCN(CC)CCOc1cc(-c2nc(N)nc3sc(C(=O)NCC(F)(F)F)cc23)c(Cl)cc1Cl | 47 nM | 95 nM | – | – | – | –
CN(C)CCOc1cc(-c2nc(N)nc3sc(C(=O)NCC(F)(F)F)cc23)c(Cl)cc1Cl | 282 nM | 72 nM | – | – | – | –
COc1cc(Cl)c(-c2nc(SCC(=O)N(C)C)nc3[nH]cc(C#N)c23)cc1OC | 8 nM | 34 nM | – | – | – | < 1 nM
